Results from patent publication US8278465B2, “Coumarin derivative having antitumor activity” (Chugai Seiyaku Kabushiki Kaisha, priority 2006, dated 2012).
Like-named read-outs stand apart in the source and are kept apart here.

Experiments:
[1] = test system: human colon cancer cell line HCT116; assay: Measurement of cell proliferation inhibitory activity (Cell Counting Kit-8); type: cell-based; settings: Homo sapiens, HCT-116, 96 h, HCT116, 4 days incubation, read-out: IC50 (50% proliferation inhibitory concentration)
Description: The cell proliferation inhibitory activities of the compounds and salts shown in Tables 1-1, 1-2 and Table 2 were measured as follows, using the human colon cancer cell line HCT116 (American Type Culture Collection, VA, USA). 2000 to 3000 cells per well of the human colon cancer cell line HCT116 was placed in a 96-well culture plate, a predetermined concentration (0.00038 μM, 0.00076 μM, 0.0015 μM, 0.0031 μM, 0.0061 μM, 0.012 μM, 0.024 μM, 0.049 μM, 0.098 μM, 0.195 μM, 0.39 μM, 0.78 μM, 1.56 μM, 3.13 μM, 6.25 μM, 12.5 μM, 25 μM or 50 μM) of the test substance was added thereto, and the mixture was then incubated at 37° C. under 5% CO2 environment for 4 days. On day 4 of incubation, the Cell Counting Kit-8 solution (Dojindo Laboratories) was added, the absorbance (measurement wavelength: 450 nm; reference wavelength: 615 nm) was measured following the protocol attached to the kit, and the 50% proliferation inhibitory concentration (IC50) was calculated.

[2] = Calculation of AUC value (plasma concentration after oral administration); type: in vivo; settings: BALB/c (nu/nu), mouse, mice, plasma 15 min to 24 h, trapezoidal method, read-out: AUC (area under the blood concentration-time curve)
Description: The AUC (area under the blood concentration-time curve) values of the compounds and salts shown in Table 2 (only compound 1j-2-16-2 is Na salt; the others are free form) were calculated by administering the test substance to an animal and measuring its concentration in plasma. As the animals, BALB/c (nu/nu) mice (4 to 6 weeks old) procured from Japan Charles River Laboratories were used after a one-week taming period. As for the test substances other than Comp. 1, 5 mg/mL of the substance solution was given at 0.2 mL/10 g body weight (dose of the test substance: 100 mg/kg body weight). As for Comp. 1, 10 mg/mL of the substance solution was given at 0.2 mL/10 g body weight (dose of the test substance: 200 mg/kg body weight). Administration of the substance solution to a mouse was performed forcibly using an oral feeding tube. Blood was collected from the eye pit 15 minutes, 2 hours, 7 hours and 24 hours after administration of the substance solution, using a hematocrit tube treated with heparin. Paraoxon (final concentration: 1 mM) was added to the collected blood as a stabilizer, the mixture was centrifuged at 10000 rpm for 3 minutes, and plasma was separated. The plasma was stored in a freezer set to −80° C. until the time of measurement. The measurement was carried out as follows. 100 μL of distilled water to which the internal standard substance (a structural homolog, concentration adjusted appropriately depending on the compound used) had been added was added to 5 μL of the plasma, and then, a measurement sample was prepared through solid phase extraction processing using an Oasis HLB μElution Plate (Waters), and was analyzed by LC/MS/MS. The plasma concentration was calculated using a calibration curve prepared based on the ratio of standard substance to internal standard substance in control plasma of mice. The AUC was calculated from the data of plasma concentration of the drug by the trapezoidal method using Microsoft Excel 2003 (Microsoft).

IC50 ([1]; Table 2)	AUC ([2]; 100 mg/kg body weight)	IC50 ([1]; Table 1-2)	AUC ([2]; 200 mg/kg body weight (Comp. 1))	SMILES	AUC ([2]; in vivo, 100 mg/kg body weight)
44.7 nM	425 µM·h	–	–	CNS(=O)(=O)Nc1cccc(Cc2c(C)c3ccc(Oc4ncccn4)cc3oc2=O)c1F [Compound 1j-2-4-2, 3-{2-Fluoro-3-(methylaminosulfonyl)aminobenzyl}-4-methyl-7-(pyrimidin-2-yloxy)-2-oxo-2H-1-benzopyran]	–
165 nM	317 µM·h	–	–	CNS(=O)(=O)Nc1cccc(Cc2c(CF)c3ccc(Oc4ncccn4)cc3oc2=O)c1F [Compound 1j-2-4-2F, 3-{2-Fluoro-3-(methylaminosulfonyl)aminobenzyl}-4-fluoromethyl-7-(pyrimidin-2-yloxy)-2-oxo-2H-1-benzopyran]	–
40.8 nM	3200 µM·h	–	–	CNS(=O)(=O)Nc1nccc(Cc2c(C)c3ccc(Oc4ncccn4)cc3oc2=O)c1F [Compound 1j-2-16-2, 3-{2-(Methylaminosulfonyl)amino-3-fluoropyridin-4-ylmethyl}-4-methyl-7-(pyrimidin-2-yloxy)-2-oxo-2H-1-benzopyran]	–
150 nM	811 µM·h	–	–	Cc1c(Cc2cccc(NS(N)(=O)=O)c2F)c(=O)oc2cc(Oc3ncccn3)ccc12 [Compound 1j-2-4-1, 3-{2-Fluoro-3-(aminosulfonyl)aminobenzyl}-4-methyl-7-(pyrimidin-2-yloxy)-2-oxo-2H-1-benzopyran]	–
–	–	160 nM	97.6 µM·h	CCS(=O)(=O)Nc1cccc(Cc2c(C)c3cc(Cl)c(Oc4ncccn4)cc3oc2=O)c1 [Comp. 1, reference compound]	–

Second part, the compound before the results:

SMILES	IC50 ([1]; Table 2)	AUC ([2]; 100 mg/kg body weight)	IC50 ([1]; Table 1-2)	AUC ([2]; 200 mg/kg body weight (Comp. 1))	AUC ([2]; in vivo, 100 mg/kg body weight)
CNC(=O)CS(=O)(=O)Nc1cccc(Cc2c(C)c3ccc(Oc4nccs4)cc3oc2=O)c1F [Compound 1o-3-4-2, 2-{2-Fluoro-3-[4-methyl-2-oxo-7-(thiazol-2-yloxy)-2H-1-benzopyran-3-ylmethyl]phenylsulfamoyl}-N-methyl-acetamide]	325 nM	367 µM·h	–	–	–
CNS(=O)(=O)Nc1cc(Cc2c(C)c3cc(Cl)c(Oc4ncccn4)cc3oc2=O)ccn1 [Compound 1j-2-12-2, 3-{2-(Methylaminosulfonyl)aminopyridin-4-ylmethyl}-4-methyl-7-(pyrimidin-2-yloxy)-6-chloro-2-oxo-2H-1-benzopyran]	282 nM	252 µM·h	–	–	–
CNS(=O)(=O)Nc1cccc(Cc2c(C)c3cc(F)c(Oc4ncccn4)cc3oc2=O)c1F [Compound 1j-2-5-2, 3-{2-Fluoro-3-(methylaminosulfonyl)aminobenzyl}-4-methyl-7-(pyrimidin-2-yloxy)-6-fluoro-2-oxo-2H-1-benzopyran]	75.1 nM	344 µM·h	–	–	–
CNS(=O)(=O)Nc1cccc(Cc2c(C)c3ccc(Oc4nccs4)cc3oc2=O)c1 [Compound 1j-3-1-2, 3-{3-(Methylaminosulfonyl)aminobenzyl}-4-methyl-7-(thiazol-2-yloxy)-2-oxo-2H-1-benzopyran]	164 nM	199 µM·h	–	–	–
CNS(=O)(=O)Nc1cccc(Cc2c(C)c3ccc(OC(=O)N(C)C)cc3oc2=O)n1 [Compound 1j-1-13-2, Dimethylcarbamic acid 4-methyl-3-{6-(methylaminosulfonyl)aminopyridin-2-ylmethyl}-2-oxo-2H-1-benzopyran-7-yl ester]	271 nM	–	–	–	314 µM·h
CNS(=O)(=O)Nc1cccc(Cc2c(C)c3cc(C)c(Oc4nccs4)cc3oc2=O)c1 [Compound 1j-3-8-2, 3-{3-(Methylaminosulfonyl)aminobenzyl}-4-methyl-7-(thiazol-2-yloxy)-6-methyl-2-oxo-2H-1-benzopyran]	96.8 nM	149 µM·h	–	–	–
